The values that follow are results of earlier work, collected in US20080241117A1, “Oral Care Compositions Containing a Mixed Tocopherol Component” (priority 2007, published 2008).

For data set [1], the system named is gingivitis. To be noted: applied topically in toothpaste; primates.
The test system of data set [2] is gingivitis. To be noted: applied topically in toothpaste; humans.
The conditions of data set [3]: applied topically in toothpaste.
The subject of data set [4] is prostaglandin E2 in gingival crevicular fluid. To be noted: applied topically in rinse form.

Where two headings read alike, the source gives them in different places.

For `Cc1c(C)c2c(c(C)c1O)CC[C@@](C)(CCC[C@H](C)CCC[C@H](C)CCCC(C)C)O2` [alpha tocopherol], the effect on gingivitis result in the data set on gingivitis [1] and in the data set on gingivitis [2] was “fails to provide an effect on gingivitis” in each case. Besides, the “penetration of gum tissue” value in data set [3] is “penetrates gum tissue”.

Turning to tocopherol [vitamin E], the “level of prostaglandin E2 in gingival crevicular fluid” value in data set [4] was “reduced level of prostaglandin E2”.
